The results in this text go back to the PolyMetriX glass transition set.

Structures are written as SMILES.

Compound `*C(CC(C)C)C(=O)Nc1ccc(Oc2ccc(NC(=O)Nc3ccc(Cc4ccc(NC(=O)Nc5ccc(Oc6ccc(NC(=O)C(CC(C)C)n7c(=O)c8cc9c(=O)n(*)c(=O)c9cc8c7=O)cc6)cc5)cc4)cc3)cc2)cc1` (repeat unit) returned a glass transition temperature of 181.40 °C. With `*CC#CC#CCOc1ccc(C(=O)OCCN(CCOC(=O)c2ccc(O*)cc2)c2ccc(/N=N/c3ccc(/N=N/c4cc(C)c([N+](=O)[O-])c(C)c4)cc3)cc2)cc1` (repeat unit) the figure was 115.00 °C.

Take `*CC#CC#CCOc1ccc(C(=O)OCCN(CCOC(=O)c2ccc(O*)cc2)c2ccc(/N=N/c3ccc(C#N)cc3)cc2)cc1` (repeat unit): the glass transition temperature was determined as 121.00 °C. With `*CC(=O)NCCCCCCNC(=O)CCc1ccc(O*)cc1` (repeat unit) the figure was 72.00 °C.

For `*CC(=O)Nc1ccc(Cc2ccc(NC(=O)CN3C(=O)c4ccc(C(=O)c5ccc6c(c5)C(=O)N(*)C6=O)cc4C3=O)cc2)cc1` (repeat unit), the glass transition temperature is 233.00 °C.

`*CC(=O)Nc1ccc(NC(=O)c2ccc3c(c2)C(=O)N(*)C3=O)cc1` (repeat unit) registered a glass transition temperature of 292.00 °C.

`*CC(=O)Nc1ccc(Oc2ccc(-c3ccc(Oc4ccc(NC(=O)CN5C(=O)c6ccc(C(c7ccc8c(c7)C(=O)N(*)C8=O)(C(F)(F)F)C(F)(F)F)cc6C5=O)cc4)cc3)cc2)cc1` (repeat unit) came in with a glass transition temperature of 245.00 °C. The result for `*CC(=O)Nc1ccc(Oc2ccc(NC(=O)CN3C(=O)c4ccc(C(=O)c5ccc6c(c5)C(=O)N(*)C6=O)cc4C3=O)cc2)cc1` (repeat unit) reads 235.00 °C.

`*CC(=O)Nc1ccc(Oc2ccc(NC(=O)c3ccc4c(c3)C(=O)N(*)C4=O)cc2)cc1` (repeat unit): the glass transition temperature was found to be 262.00 °C. `*CC(=O)Nc1ccc(Oc2ccc(Oc3ccc(NC(=O)c4ccc5c(c4)C(=O)N(*)C5=O)cc3)cc2)cc1` (repeat unit): the glass transition temperature is 242.00 °C. With `*CC(=O)Nc1ccc(Oc2cccc(Oc3ccc(NC(=O)c4ccc5c(c4)C(=O)N(*)C5=O)cc3)c2)cc1` (repeat unit) the figure was 220.00 °C; with `*CC(C)N1C(=O)C2C3C=CC(C4C(=O)N(*)C(=O)C34)C2C1=O` (repeat unit), 212.00 °C; with `*CC(O)CN(*)c1ccc(/N=N/c2ccc(Cl)cc2)cc1` (repeat unit), 160.00 °C. The compound `*CCC(=O)NCCCCCCNC(=O)CCS*` (repeat unit) returned a glass transition temperature of 27.00 °C. With `*CCC(=O)NCc1c(C)c(C)c(CNC(=O)CCO*)c(C)c1C` (repeat unit) the figure was 191.00 °C; with `*CCC(=O)Nc1ccc(Oc2cccc(NC(=O)CCN3C(=O)c4ccc(C(=O)c5ccc6c(c5)C(=O)N(*)C6=O)cc4C3=O)c2)cc1` (repeat unit), 224.00 °C. With `*CCC(=O)O*` (repeat unit) the figure was -24.00 °C. With `*CCC(C)CC(=O)O*` (repeat unit) the figure was -71.50 °C; with `*CCC(C)CC(C)(C)CNC(=O)c1ccc(C(=O)N*)cc1` (repeat unit), 147.00 °C. In turn, `*CCC(C)CCC(=O)S*` (repeat unit) showed a glass transition temperature of -50.00 °C. `*CCC(C)CCOC(=O)CCCCC(=O)O*` (repeat unit) gave a glass transition temperature of -78.60 °C. With `*CCC1CC(=O)N(*)C1=O` (repeat unit) the figure was 131.00 °C; with `*CCCCCCCCCCCCCCCCCCNC(=O)CCc1ccc(CCC(=O)N*)cc1` (repeat unit), 65.00 °C. The result for `*CCCCCCNC(=O)CCP(=O)(CCC(=O)N*)c1ccccc1` (repeat unit) reads 29.00 °C.

`*CCCCCCNC(=O)CCP(=S)(CCC(=O)N*)c1ccccc1` (repeat unit): the glass transition temperature was found to be 43.00 °C. With `*CCCCCCNC(=O)CCc1ccc(CC(=O)N*)cc1` (repeat unit) the figure was 87.00 °C. The result for `*CCCCCCNC(=O)CCc1ccc(CCC(=O)N*)cc1` (repeat unit) reads 85.00 °C. On to `*CCCCOCO*` (repeat unit), for which the glass transition temperature was -84.00 °C. `*CCCS*` (repeat unit) gave a glass transition temperature of -53.50 °C. Compound `*CCN(*)C(=O)c1cccc(F)c1` (repeat unit) returned a glass transition temperature of 97.00 °C.

For the compound `*CCN(*)C(=O)c1ccccc1F` (repeat unit), the glass transition temperature is 109.00 °C. `*CCN(*)CC` (repeat unit) returned a glass transition temperature of -32.00 °C. With `*CCN(*)CCOCCOC` (repeat unit) the figure was 16.00 °C.

Take `*CCN(*)CC[Si](C)(C)C` (repeat unit): the glass transition temperature was -64.80 °C. With `*CCN(*)Cc1ccccc1` (repeat unit) the figure was -16.00 °C; with `*CCN(CCOC(=O)NCCCCCCNC(=O)O*)c1ccc(/N=N/c2ccc([N+](=O)[O-])cc2)c(C)c1` (repeat unit), 75.00 °C. In the case of `*CCN(CCOC(=O)Nc1ccc(C)c(NC(=O)O*)c1)c1ccc(/C=C/c2cc[n+](CCCC)cc2)cc1` (repeat unit), the glass transition temperature amounted to 121.00 °C. Compound `*CCN(CCOC(=O)Nc1ccc(C)c(NC(=O)O*)c1)c1ccc(/N=N/c2ccc(-c3nc4ccc([N+](=O)[O-])cc4n3CC)cc2)cc1` (repeat unit) gave a glass transition temperature of 158.00 °C. The compound `*CCN(CCOC(=O)Nc1ccc(C)c(NC(=O)O*)c1)c1ccc(/N=N/c2ccc(/N=N/c3cc(OC)c(/N=N/c4ccc([N+](=O)[O-])cc4)cc3OC)c(C)c2)cc1` (repeat unit) came in with a glass transition temperature of 148.00 °C.

`*CCN(CCOC(=O)Nc1ccc(C)c(NC(=O)O*)c1)c1ccc(/N=N/c2ccc([N+](=O)[O-])cc2C)cc1` (repeat unit) showed a glass transition temperature of 137.00 °C. With `*CCN(CCOC(=O)c1cc(OCc2cc(OCc3ccccc3)cc(OCc3ccccc3)c2)cc(C(=O)O*)c1)c1ccc(/C=C/c2ccc(/C=C/C3=C(C#N)C(=C(C#N)C#N)OC3(c3ccccc3)C(F)(F)F)s2)cc1` (repeat unit) the figure was 130.00 °C.

`*CCN(CCOC(=O)c1ccc(C(=O)O*)c(OC)c1)c1ccc(/N=N/c2ccc(-c3nc4ccc([N+](=O)[O-])cc4n3CC)cc2)cc1` (repeat unit) gave a glass transition temperature of 146.00 °C. `*CCN(CCOC(=O)c1ccc(C(=O)O*)c(OC)c1)c1ccc(/N=N/c2ccc(/C=C/c3nc4ccc([N+](=O)[O-])cc4n3CC)cc2)cc1` (repeat unit) had a glass transition temperature of 173.00 °C. The result for `*CCN(CCOC(=O)c1ccc(C(=O)O*)cc1)c1ccc(C=C(C#N)C#N)cc1` (repeat unit) reads 127.00 °C; that for `*CCSCc1ccc(Cc2ccc(CSCCOC(=O)CCSCc3ccc(Cc4ccc(CSCCC(=O)O*)cc4)cc3)cc2)cc1` (repeat unit), 12.00 °C; that for `*CCc1ccc(*)c(Br)c1` (repeat unit), 80.00 °C.

Consider `*CCc1ccc(*)c(C#N)c1` (repeat unit), for which the glass transition temperature is 90.00 °C. Consider `*CCc1ccc(*)c(CC)c1` (repeat unit), for which the glass transition temperature was 25.00 °C. Take `*CCc1ccc(*)c(CCCC)c1` (repeat unit): the glass transition temperature is 20.00 °C. `*Cc1c(C)c(C)c(CNC(=O)CCCC(=O)N*)c(C)c1C` (repeat unit) returned a glass transition temperature of 192.00 °C.

As to `*Cc1cc(C)c(CNC(=O)CCCCC(=O)N*)cc1C` (repeat unit), the glass transition temperature is 70.00 °C. With `*O[Si](C)(C)CC[Si](*)(C)O[Si](C)(C)C` (repeat unit) the figure was -89.00 °C. The compound `*Oc1ccc(CC(NC(=O)CCc2ccc(OC(=O)CCCCC(*)=O)cc2)C(=O)OCc2ccccc2)cc1` (repeat unit) registered a glass transition temperature of 54.50 °C. In the case of `*Oc1ccc(CC(NC(=O)CCc2ccc(OC(=O)COCC(*)=O)cc2)C(=O)OCc2ccccc2)cc1` (repeat unit), the glass transition temperature stood at 76.00 °C. The result for `*Oc1ccc(NC(=O)c2cc(C(=O)Nc3ccc(*)cc3)c(C(=O)OCC)cc2C(=O)OCC)cc1` (repeat unit) reads 208.1 °C; that for `*Oc1ccc(NC(=O)c2cc(NC(=O)CCCCCN3C(=O)c4ccccc4C3=O)cc(C(=O)Nc3ccc(*)cc3)c2)cc1` (repeat unit), 200.00 °C. `*Oc1ccc(NC(=O)c2cc(NC(=O)CCN3C(=O)c4ccccc4C3=O)cc(C(=O)Nc3ccc(*)cc3)c2)cc1` (repeat unit) yielded a glass transition temperature of 240.00 °C. Turning to `*Oc1ccc(NCC(=O)c2ccc(Sc3ccc(C(=O)CNc4ccc(*)cc4)cc3)cc2)cc1` (repeat unit), the glass transition temperature amounted to 208.00 °C. With `*Oc1ccc(Oc2ccc(NC(=O)c3cc(NC(=O)c4ccc(OC(C)=O)cc4)cc(C(=O)Nc4ccc(*)cc4)c3)cc2)cc1` (repeat unit) the figure was 251.00 °C; with `*c1ccc(OCCN(C)c2ccc(/C=C/C3=CC(=C4/C(=O)c5ccccc5C4=C(C#N)C#N)/C=C(/C=C/c4ccc(N(C)CCOc5ccc(-c6nc7ccc(Oc8ccc9nc(*)c(-c%10ccccc%10)nc9c8)cc7nc6-c6ccccc6)cc5)cc4)O3)cc2)cc1` (repeat unit), 260.00 °C; with `*c1ccc(OCCN(CCOc2ccc(-c3cc(-c4ccccc4)c4cc(Oc5ccc6nc(*)cc(-c7ccccc7)c6c5)ccc4n3)cc2)c2ccc(C(C#N)=C(C#N)C#N)cc2)cc1` (repeat unit), 175.00 °C. The result for `*c1ccc(OCCN(CCOc2ccc(-c3nc4ccc(Oc5ccc6nc(*)c(-c7ccccc7)nc6c5)cc4nc3-c3ccccc3)cc2)c2ccc(/N=N/c3ccc([N+](=O)[O-])cc3)cc2)cc1` (repeat unit) reads 199.00 °C; that for `*c1ccc(OCCN(CCOc2ccc(-c3nc4ccc(Oc5ccc6nc(*)c(-c7ccccc7)nc6c5)cc4nc3-c3ccccc3)cc2)c2ccc(/N=N/c3ccc([N+](=O)[O-])cc3C)cc2)cc1` (repeat unit), 188.00 °C.
